Data from paper PMC12040169 (PLOS Biology, 2025).

Assay: in vitro
Conditions: human, hela cells, % viability

| SMILES | viability at 28.5 h, 10 µM | viability at 28.5 h, 10 µM (bulk resorufin, single well) |
| --- | --- | --- |
| CCc1nc2c(OCC3CCCCC3)cccn2c1N(C=O)Cc1ccc(OC)cc1 [CBK147811] | 100% |  |
| O=c1c2c3c(sc2nc(SCc2cc(O)[nH]n2)n1Cc1ccco1)CCC3 [CBK268301] | 99.4% |  |
| O=C(O)c1sc2c(ccc3ccccc32)c1Br [CBK018387] | 90.4% |  |
| CCCCN1CCC(CNc2cc(C(F)(F)F)c3scc(C(=O)NC4CCC4)c3n2)CC1 [CBK034026C] | 103% |  |
| COc1cc(NS(=O)(=O)c2ccccc2)c(Cl)cc1C(=O)O [CBK286564] | 98% |  |
| CN(C(=O)N1CCC(C(=O)NC(c2ccccc2)c2ccco2)CC1)c1ccccc1 (stereo not drawn) [CBK059877] | 89% |  |
| O=S(=O)(NCCc1csc(-c2cccnc2)n1)c1cccnc1 [CBK287546] | 91.8% |  |
| CCOC(=O)N/N=C(/C)C(C)(C)C [CBK016460] | 105% |  |
| CC(=O)[C@H]1C[C@@H](CC(=O)N2CCC(C(C)=O)(c3ccccc3)CC2)C1(C)C [CBK091323] |  | 109% |
| Cc1cc(C(=O)N2CCN(C(=O)c3cn(Cc4ccc(S(C)(=O)=O)cc4)nn3)CC2)n(C)n1 [CBK160824T] | 110% |  |
| Cc1ccccc1OCCn1c(CCCO)nc2ccccc21 [CBK266182] | 115% |  |
| Cc1cc(-c2nnc3n2N=C(c2ccccc2)CS3)n[nH]1 [CBK287944] | 98.3% |  |
| O=C(COc1ccc(-c2cnc3ccccc3n2)cc1)c1cccc([N+](=O)[O-])c1 [CBK266367] | 86.8% |  |
| O=[N+]([O-])c1ccc(CN2CCC(Oc3nccnc3OCC3COc4ccccc4O3)CC2)cc1 (stereo not drawn) [CBK082984T] | 99.1% |  |
| COc1ccc2c(c1OC)C(=O)N(c1cccc([N+](=O)[O-])c1)C2 [CBK115318] | 99.5% |  |
| COC(=O)CCc1ccc(S(=O)(=O)N2CCCN(Cc3cc(Cl)cc(Cl)c3)CC2)cc1 [CBK062982] | 97.2% |  |
| Cc1cc(=O)oc2c1c(C)nn2-c1nn[nH]n1 [CBK266732] | 91% |  |
| COC(=O)CN1C(c2ccccc2O)Nc2ccc(Br)cc2C1c1ccccc1 (stereo not drawn) [CBK263133] | 91.1% |  |
| Cc1cc(S(=O)(=O)Nc2cccc(Br)c2)c(C)cc1Cl [CBK043652] | 80.8% |  |
| O=C(CN1CCC(c2ccc(F)cc2)CC1)N1CCOCC1 [CBK283683] | 88.4% |  |
| COCC1(C(=O)N2CC(=O)N(c3ccc(C)cc3)CC2C)CCC1 (stereo not drawn) [CBK307606] | 89.1% |  |
| Cn1nc(C(C)(C)C)cc1NC(=O)CN1CCc2cncnc2C1 [CBK304934] | 106% |  |

| SMILES | viability at 28.5 h, 10 µM | viability at 28.5 h, 10 µM (bulk resorufin, single well) |
| --- | --- | --- |
| O=S(=O)(c1ccc(Br)cc1C(F)(F)F)N1CCOCC1 [CBK062405] | 102% |  |
| COc1cc(-c2nc(NC(=O)C(C)C)cc3ccccc23)cc(OC)c1OC [CBK085741] | 106% |  |
| CC(C)(N)C(=O)N1CC(C(=O)N2CC3(CCN(S(C)(=O)=O)CC3)c3ccccc32)C(c2cc3ccccc3o2)C1 (stereo not drawn) [CBK136734T] | 117% |  |
| OCC1CCCN1c1cncc(-c2ccc3c(c2)OCO3)n1 (stereo not drawn) [CBK065908] | 100% |  |
| O=S(=O)(CCN1CCN(C(c2ccccc2)c2ccccc2)CC1)c1ccc(Cl)cc1 [CBK074810] | 92% |  |
| N#Cc1ccc(Cn2nc(NC(=O)c3ccco3)c3ccccc32)cc1 [CBK048260] | 91.8% |  |
| COC(=O)c1ccc(/C=N/N=C2\NC(=O)C(CC(=O)Nc3ccccc3)S2)cc1 (stereo not drawn) [CBK264483] | 93.6% |  |
| Cc1ccc(Nc2nc(N3CCOCC3)nc3nccnc23)cc1 [CBK287664] | 120% |  |
| Cc1cccc(C(=O)NNC(=O)COc2cccc3ccccc23)c1O [CBK262993] | 87.7% |  |
| COC(=O)c1c(NC(=S)Nc2ccccc2)sc(Cc2ccccc2)c1C [CBK263501] | 90.6% |  |
| CCCCNC(=O)NC(=O)C1CCN(CCCOc2ccccc2)CC1 [CBK035198] | 110% |  |
| Cc1ccc(-n2c(SCC(=O)c3ccc4c(c3)OCO4)nnc2-c2ccncc2)cc1 [CBK266132] | 104% |  |
| CC(C)OC(=O)c1cc2c(ccn2-c2ccc(F)cc2)n1CCC#N [CBK123921] | 95% |  |
| Cc1nnc(CSc2nnc(-c3ccc(Cl)cc3)[nH]2)o1 [CBK270241] | 102% |  |
| N#Cc1ccc(Oc2cccc(C(F)(F)F)c2)c(F)c1 [CBK002801] | 88.3% |  |
| CCN(CC)c1cc(N2CCCNCC2)ccc1S(=O)(=O)c1cccc(F)c1 [CBK018509C] | 101% |  |
| COc1ccc2oc(C(=O)NCCN3CCOCC3)c(C)c2c1OC [CBK269913C] | 86.8% |  |
| COc1ccc(-c2ccc(CCC(=O)O)n2CCc2ccccc2)cc1 [CBK265929] | 115% |  |
| Cc1nc(CCCn2cnc3cnccc3c2=O)sc1C [CBK306610] | 102% |  |
| CCN(CC)C(=O)c1ccc(-n2ccnc2)c(-n2cccc2)c1 [CBK285371] | 86.3% |  |
| COc1cccc(OCC2CCCN(C(=O)CCc3cnn(C)c3)C2)c1 (stereo not drawn) [CBK306931] | 85% |  |
| COc1ccc(C(C)c2cc3c(cc2O)OCO3)c(F)c1 (stereo not drawn) [CBK200101] | 98.1% |  |

| SMILES | viability at 28.5 h, 10 µM | viability at 28.5 h, 10 µM (bulk resorufin, single well) |
| --- | --- | --- |
| Cc1ccc(C(=O)N2CCC(O)(c3cccnc3F)CC2)o1 [CBK284358] | 94.4% |  |
| COc1cc(CCc2cc(O)n3nc(-c4cccc(C)c4)c(C)c3n2)on1 [CBK285691] | 99.8% |  |
| CC1(c2ccccc2)CC(C)(C)N(C(=O)CSc2nc3ccccc3o2)c2ccccc21 (stereo not drawn) [CBK262466] | 104% |  |
| O=S(=O)(N[C@H]1CO[C@H]2[C@@H]1OC[C@@H]2n1cc(-c2ccccn2)nn1)c1cccs1 [CBK289508] | 88.7% |  |
| c1ncc(OC2CCNC2)nc1OCCN1CCOCC1 (stereo not drawn) [CBK077311T] | 91.2% |  |
| NC(=O)CN1CC2(CCN(CCS(=O)(=O)c3ccccc3)CC2)c2ccccc21 [CBK126786] | 103% |  |
| OC(CN1CCNCC1)Cn1c2ccc(Cl)cc2c2cc(Cl)ccc21 (stereo not drawn) [CBK094277G] | 68.1% |  |
| C=CCNC(=O)[C@@H]1C=CCN1S(=O)(=O)c1ccc(Cl)cc1 [CBK284318] | 90.4% |  |
| CSc1cccc(NC(=O)c2sc3nc(C)cc(C)c3c2N)c1 [CBK115349] | 94.7% |  |
| O=C(Cc1c[nH]c2ccccc12)N1CCC2(CCCN(C(=O)c3cccnc3)C2)C1 (stereo not drawn) [CBK131604] | 103% |  |
| COc1cc(C)c(-c2nc(C)nc(C)c2C)c(C)c1 [CBK306711] | 90.5% |  |
| N=c1n(CCN2CCCCC2)c2ccccc2n1CC(O)COc1ccccc1 (stereo not drawn) [CBK262451C] | 88.5% |  |
| Cc1ccc(SCCNCCN2CCOCC2)cc1 [CBK268581G] | 104% |  |
| CCCn1nc(COc2cccc(F)c2)nc1C1CCN(C(C)=O)CC1 [CBK306637] | 97.7% |  |
| CC1=CC(C)C(C(=O)O)C(C(=O)NCc2cccnc2)C1 (stereo not drawn) [CBK293964] | 113% |  |
| OCCOc1ccccc1-c1nnco1 [CBK001972] | 92.6% |  |
| Cc1c(C(N)=O)sc(NC(=O)c2cccnc2)c1C#N [CBK268163] | 105% |  |
| CCCN1CCC(CNC(=O)c2cc(C3CC3)nn2C)CC1 [CBK282536] | 101% |  |
| CCCCc1ccc(NC(=S)NC(=O)c2ccc(OC)c(OC)c2)cc1 [CBK157691] | 100% |  |
| Cc1nc2c(c(N3CCN(c4ccc(O)cc4)CC3)n1)CN(Cc1ccccc1)CC2 [CBK286177] | 90.2% |  |
| Cc1cccc2c1[nH]c1nc(N/N=C\c3ccc(-c4cccc([N+](=O)[O-])c4)o3)nnc12 [CBK262373] | 96% |  |
| CC1CC(C)CN(C(=O)c2ccc(-n3ccnc3)c(-n3cccc3)c2)C1 (stereo not drawn) [CBK285372] | 101% |  |

| SMILES | viability at 28.5 h, 10 µM | viability at 28.5 h, 10 µM (bulk resorufin, single well) |
| --- | --- | --- |
| COc1cc(C)nc(NC(=O)COc2ccc(Cl)cc2C)n1 [CBK266681] | 106% |  |
| CC(=O)N1CCN(c2nc3ccccc3s2)CC1 [CBK287362] | 95% |  |
| CN(C)[C@@H]1CN(Cc2ccc(O)cc2)C[C@H]1c1cn(C)c2ccccc12 [CBK284952] | 108% |  |
| C[Si]1(C)O[Si](C)(C)O[Si](C)(CC[Si](C)(C)c2ccccc2)O[Si](C)(C)O1 [CBK260998] | 97% |  |
| Cc1cccc(-c2ncc(C(=O)NCCc3c[nH]cn3)cc2-c2ccncc2)c1 [CBK036678] | 86.9% |  |
| Cc1cc(C)c2c(C(C)(C)C)nn(-c3ccc(C(=O)O)cc3)c2n1 [CBK267481] | 88.4% |  |
| O=C(O)CNC(=O)c1ccc(S(=O)(=O)N2CCOCC2)cc1 [CBK267437] | 112% |  |
| CCCCNC(=S)N[C@H]1CC[C@@]2(Cc3ccc(OC)cc3)CCN(C)[C@H]2C1 [CBK004258] | 108% |  |
| CC(=O)Nc1ccc(S(=O)(=O)NNC(=O)c2cccc(Cl)c2)cc1 [CBK261694] | 89.4% |  |
| O=C(O)/C=C\C(=O)Nc1cccc(NC(=O)c2cccs2)c1 [CBK263952] | 85.7% |  |
| Fc1ccc(-c2cccc(Nc3ccc(Oc4ccccc4)cc3)n2)cc1Cl [CBK037699] | 102% |  |
| O=C1NN(c2ccc(F)c(Cl)c2)C(=O)/C1=C/c1ccc(-c2ccc(Cl)cc2)o1 [CBK095978] | 98.1% |  |
| Cc1nc(C)n(CC2CCCN(Cc3cc(=O)n4ccccc4n3)C2)n1 (stereo not drawn) [CBK304135] | 88.5% |  |
| c1ccc2c(c1)CCN(Cc1nc3ccccc3[nH]1)C2 [CBK126396] | 92.2% |  |
| CN(C)Cc1c(O)ccc2c(=O)c(Oc3ccc(-c4ccccc4)cc3)c(C(F)(F)F)oc12 [CBK264519] | 107% |  |
| CCOc1cc(OCC)cc(C(=O)N2CCC3(CC2)NC(=O)c2ccc(C)cc2O3)c1 [CBK166215] | 117% |  |
| O=C(O)c1ccc2c(c1)C(=O)N(c1ccc(-c3nc(-c4ccccc4)c4ccccc4n3)cc1)C2=O [CBK263311] | 101% |  |
| O=P(O)(CN1CCCCCC1)CN1CCCCCC1 [CBK262311] | 92.1% |  |
| COC(=O)c1ncn(CC(=O)N2CCCCCC2)n1 [CBK305184] | 98.9% |  |
| CCCCNc1cc(N2CCN(c3cnn(C)c3)C(=O)C2)nc(N)n1 [CBK306260] | 87.8% |  |
| Cc1ccc(OCCCN2CCN(C)CC2)c(Cc2ccccc2)c1 [CBK269650C] | 104% |  |
